The target of one assay is T1, MC3R + Gα16 (Homo sapiens, UniProt P41968).
T1 construct: expressed in transfected cells; host or cells: HEK-293, pCIneo, transient (10 μg MCR:5 μg Gα16)
Nature of the assay: Calcium mobilization, HEK-293 transiently expressing MC3R + Gα16. In kind it is cell-based. How it is done: (§1) Human MC3R (NM_019888), MC4R (NM_005912), and MC5R (NM_005913) were transiently expressed in HEK-293 cells with and without human GPR139 (KR081941) or the chimeric G-protein Gα16. All genes were cloned into pCIneo (Promega, Madison, WI, United States, #E1841). HEK-293 cells were cultured in DMEM/F12 (Gibco, Grand Island, NY, United States, #11039-021), 10% FBS (Hyclone, Logan, UT, United States, # SH300700.03), 50 units/ml penicillin and 50 μg/ml streptomycin (Mediatech, Manassas, VA, United States, #30-001-CI). Cells were seeded at 4 × 10^6 cells in 10 cm dishes and allowed to grow overnight at 37°C, 5% CO2. On the day of transfection, culture media was replaced with F12-K (Mediatech, Manassas, VA, United States, #10-025-CV), 10% FBS, 20 mM HEPES (Hyclone, Logan, UT, United States, #SH30237.01) and transfected with 15 μg DNA (10 μg MCR:5 μg pCIneo, 10 μg MCR:5 μg Gα16 or 7.5 μg MCR:7.5 μg GPR139) using FuGene HD (Promega, Madison, WI, United States, #E2311) according to manufacturer’s instructions. MC3R, MC4R, and MC5R were also transiently expressed in the following GPR139 stably expressing cell lines using the FuGENE HD method: HEK-293 GPR139 clone#33, CHO-TREx GPR139 clone#18, and SK-N-MC/CRE TREx GPR139 clone#35. Stable cell lines were established according to method previously described ([Liu et al., 2015]).
(§2) Intracellular calcium mobilization was measured with the BD calcium kit (BD Bioscience, San Jose, CA, United States). The recombinant cell lines expressing MC3R, MC4R, and MC5R with and without GPR139 or Gα16 were seeded in culture media at a density of 50,000 cells/well into 96-well black/clear-bottom poly-D-lysine treated tissue culture plates. Cells were incubated overnight at 37°C and 5% CO2. Next day, culture media was removed and cells were washed with HBSS prior to dye-loading for 1 h at 37°C and 5% CO2. […] EC50s were calculated by fitting a three-parameter logistic curve using least-squares non-linear regression analysis as implemented in Graphpad Prism 7.0.

The next assay concerns the target MC5R + GPR139 (Homo sapiens, UniProt Q6DWJ6). Nature of the assay: Calcium mobilization, HEK-293 transiently expressing MC5R + GPR139. The assay is classed as cell-based. How it is done: as §1
(§3) Intracellular calcium mobilization was measured with the BD calcium kit (BD Bioscience, San Jose, CA, United States). The recombinant cell lines expressing MC3R, MC4R, and MC5R with and without GPR139 or Gα16 were seeded in culture media at a density of 50,000 cells/well into 96-well black/clear-bottom poly-D-lysine treated tissue culture plates. Cells were incubated overnight at 37°C and 5% CO2. Next day, culture media was removed and cells were washed with HBSS prior to dye-loading for 1 h at 37°C and 5% CO2. Agonist stimulation and intracellular calcium measurements were done on the FLIPR Tetra (Molecular Devices, Sunnyvale, CA, United States). For receptor inhibition analysis, antagonists (1 μM HS-024 or 10 μM JNJ-3792165) were added off-line 15 min prior to agonist addition on the Tetra. For G-protein inhibitor experiments, cells were treated with 1 μM YM-254890 for 5 min prior to agonist additions on the Tetra. […] Responses in Figure 6 were normalized to its respective agonist response without antagonist. EC50s were calculated by fitting a three-parameter logistic curve using least-squares non-linear regression analysis as implemented in Graphpad Prism 7.0.
(A change in cytosolic calcium serves as a functional read-out for many receptors and channels.)

The target in assay [1] is T2, GPR139 (Homo sapiens, UniProt Q6DWJ6).
T2 sequence (Q6DWJ6 1-353): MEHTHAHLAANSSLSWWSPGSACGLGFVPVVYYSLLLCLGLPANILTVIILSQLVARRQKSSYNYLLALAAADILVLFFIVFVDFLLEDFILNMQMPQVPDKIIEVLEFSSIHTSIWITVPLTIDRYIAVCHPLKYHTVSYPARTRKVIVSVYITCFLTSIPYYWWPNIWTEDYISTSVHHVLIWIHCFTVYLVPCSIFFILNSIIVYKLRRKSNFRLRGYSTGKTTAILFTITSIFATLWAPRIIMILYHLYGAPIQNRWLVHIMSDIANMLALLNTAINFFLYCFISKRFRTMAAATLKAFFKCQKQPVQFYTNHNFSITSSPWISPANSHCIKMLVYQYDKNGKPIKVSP
More on the design: method as in Shehata et al. (2016). To be noted: ref Shehata et al. (2016); cited from earlier work.

In assay [2] the target is T2, GPR139. Nature of the assay: [35S]-GTPγS binding assay, membranes of CHO-TREx cells stably expressing GPR139. The assay is classed as biochemical. More on the design: expressed in transfected cells; host or cells: CHO-TREx GPR139 clone#18. To be noted: for Stimulation of [35S]-GTPγS incorporation after pertussis toxin treatment: 100 ng/ml pertussis toxin overnight; for Stimulation of [35S]-GTPγS incorporation after pertussis toxin treatment / Effect of YM-254890 on agonist [35S]-GTPγS response: data not shown; for Effect of YM-254890 on agonist [35S]-GTPγS response: 1 μM YM-254890 (Gq inhibitor); for EC50: CHO-TREx GPR139 membranes, mean ± SEM, read-out: pEC50, [35S]-GTPγS binding (converted). How it is done:
For G-protein inhibitor experiments, CHO-TRex cells stably expressing GPR139 were treated with 100 ng/ml pertussis toxin (Gi/o inhibitor) overnight prior to harvesting cells for membrane preparations. […] Reactions were terminated by rapid filtration through GF/C filterplates (Perkin-Elmer, Waltham, MA, United States) on a Cell Harvester (Perkin-Elmer, Waltham, MA, United States). Filterplates were washed three times with ice-cold wash buffer (50 mM Tris, 5 mM MgCl2) and Microscint-40 was added to each well. Bound radioactivity was measured on a Topcount scintillation counter (Perkin-Elmer, Waltham, MA, United States). […] EC50s were calculated by modeling the response associated with the logarithm of concentration as a three-parameter logistic curve with the Bottom plateau parameter fixed at 0. The fit was obtained using least-squares non-linear regression as implemented in GraphPad Prism 7.0.
(In general: GTPγS is a poorly hydrolysed GTP analogue; its binding reports G protein activation.)

The target in a further assay is T3, MC3R (Homo sapiens, UniProt P41968).
T3 construct: expressed in transfected cells; host or cells: HEK-293, pCIneo, transient (FuGene HD)
Nature of the assay: Calcium mobilization, HEK-293 transiently expressing MC3R. The assay is classed as cell-based. The method, then:
as §1, §2

The target in the next assay is T4, GPR139 + MC3R (Homo sapiens, UniProt Q6DWJ6).
T4 construct: expressed in transfected cells; host or cells: HEK-293 GPR139 clone#33, MC3R transient (FuGENE HD)
T4 sequence (Q6DWJ6 1-353): T2 sequence (Q6DWJ6 1-353)
Nature of the assay: Calcium mobilization, stable GPR139-HEK-293 cell line transiently expressing MC3R. The assay is classed as cell-based. How it is done: as §1, §2

For another assay, the target named is T5, MC5R + Gα16 (Homo sapiens, UniProt P33032).
T5 construct: expressed in transfected cells; host or cells: HEK-293, pCIneo, transient (10 μg MCR:5 μg Gα16)
As to the kind of experiment: Calcium mobilization, HEK-293 transiently expressing MC5R + Gα16. In kind it is cell-based. To be noted: HEK-293 transient; read-out: Agonist potency (pEC50), MC5R + Gα16 (converted). How it is done:
as §1, §2

The target of the next assay is T6, MC4R (Homo sapiens, UniProt P32245).
T6 construct: expressed in transfected cells; host or cells: HEK-293, pCIneo, transient (FuGene HD)
As to the kind of experiment: Calcium mobilization, HEK-293 transiently expressing MC4R. In kind it is cell-based. How it is done:
as §1, §3

A further assay addresses MC4R + GPR139 (Homo sapiens, UniProt Q6DWJ6). Nature of the assay: Calcium mobilization, HEK-293 transiently expressing MC4R + GPR139. The assay is classed as cell-based. How it is done:
as §1, §3

Assay [3] has as its target T2, GPR139. As to the kind of experiment: cAMP assay. The assay is classed as cell-based. To be noted: unpublished data. (In general: Cyclic AMP is a second messenger, typically raised through Gs and lowered through Gi signalling.)
[4] abbreviates: HEK-293 transient, read-out: Agonist potency (pEC50), MC3R + Gα16 (converted).
Setting [5] is: HEK-293 transient, read-out: Agonist potency (pEC50), MC3R (converted).
Where [6] appears, read: read-out: Agonist potency (pEC50), stable GPR139-HEK-293 + MC3R (converted).
[7] abbreviates: HEK-293 transient, read-out: Agonist potency (pEC50), MC4R (converted).

Where two headings read alike, the source gives them in different places. Some results are limits rather than exact numbers.

Sequence of MC5R + GPR139 (P33032 whole entry partner, one chain of several): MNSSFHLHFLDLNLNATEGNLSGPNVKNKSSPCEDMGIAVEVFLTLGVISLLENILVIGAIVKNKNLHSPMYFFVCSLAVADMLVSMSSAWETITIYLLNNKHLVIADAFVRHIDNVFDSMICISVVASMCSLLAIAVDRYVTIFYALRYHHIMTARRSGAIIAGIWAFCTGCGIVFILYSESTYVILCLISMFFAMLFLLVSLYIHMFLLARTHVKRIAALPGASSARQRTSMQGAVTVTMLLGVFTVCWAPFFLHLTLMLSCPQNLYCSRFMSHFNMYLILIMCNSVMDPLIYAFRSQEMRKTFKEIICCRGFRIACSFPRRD
Sequence of MC4R + GPR139 (P32245 whole entry partner, one chain of several): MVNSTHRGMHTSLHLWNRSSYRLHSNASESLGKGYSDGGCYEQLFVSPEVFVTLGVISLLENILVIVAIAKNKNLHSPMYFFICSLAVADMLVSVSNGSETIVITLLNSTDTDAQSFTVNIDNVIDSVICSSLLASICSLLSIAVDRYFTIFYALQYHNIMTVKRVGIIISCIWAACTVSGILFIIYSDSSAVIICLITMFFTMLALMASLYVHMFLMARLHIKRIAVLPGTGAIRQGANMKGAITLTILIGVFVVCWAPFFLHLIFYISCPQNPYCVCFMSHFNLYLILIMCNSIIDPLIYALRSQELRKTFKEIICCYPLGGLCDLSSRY
T1 sequence (P41968 whole entry): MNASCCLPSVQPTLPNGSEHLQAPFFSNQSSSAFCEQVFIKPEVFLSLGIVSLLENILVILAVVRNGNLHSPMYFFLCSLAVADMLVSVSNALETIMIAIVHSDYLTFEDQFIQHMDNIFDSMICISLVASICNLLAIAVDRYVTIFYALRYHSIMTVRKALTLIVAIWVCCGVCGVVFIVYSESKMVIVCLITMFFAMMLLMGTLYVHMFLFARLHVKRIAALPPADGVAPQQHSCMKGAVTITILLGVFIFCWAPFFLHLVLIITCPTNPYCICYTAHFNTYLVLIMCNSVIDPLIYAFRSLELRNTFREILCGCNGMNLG
T3 sequence (P41968 whole entry): as above
T5 sequence (P33032 whole entry): as the sequence (P33032 whole entry partner, one chain of several) above
T6 sequence (P32245 whole entry): as the sequence (P32245 whole entry partner, one chain of several) above

In the case of `C[C@H](NC(=O)CNC(=O)c1cccc(Cl)c1)c1ccccc1` [JNJ-63533054, 3-chloro-N-[2-oxo-2-[[(1S)-1-phenylethyl]amino]ethyl]benzamide], the EC50 was > 10 µM at MC3R + Gα16 (setting [4]); 0.0209 µM at MC5R + GPR139; 0.0646 µM on GPR139 [2]; > 10 µM at MC3R (setting [5]); 0.0204 µM at GPR139 + MC3R (setting [6]); > 10 µM at MC5R + Gα16. Besides, the EC50 is > 10 µM on MC4R (setting [7]) and 0.0355 µM on MC4R + GPR139. In addition, the “Agonist potency (pEC50), MC5R + GPR139, No antagonist” value at MC5R + GPR139 is given as 7.68 ± 0.08. In addition, the cAMP response result at GPR139 [1] is given as “unable to induce or inhibit a cAMP response”. Besides, the “Stimulation of [35S]-GTPγS incorporation after pertussis toxin treatment” value (shortened to “Stimulation of [35S]-GTPγS incorporation”) at GPR139 [2] is “did not stimulate”. Also, the “Effect of YM-254890 on agonist [35S]-GTPγS response” value (from here on “Effect of YM-254890 on agonist”) at GPR139 [2] is “had no effect”. Moreover, the “Agonist potency (pEC50), MC4R + GPR139, No antagonist” value at MC4R + GPR139 worked out at 7.45 ± 0.09. The “Response in a cAMP assay” value at GPR139 [3] is “unable to detect a response”.

As to `N[C@@H](Cc1c[nH]c2ccccc12)C(=O)O` [L-Trp, L-tryptophan], the EC50 on MC3R + Gα16 (setting [4]) was > 3160 µM; on MC5R + GPR139 it was 95.5 µM; at GPR139 [2], 427 µM; at MC3R (setting [5]) it was > 3160 µM; at GPR139 + MC3R (setting [6]), 126 µM; at MC5R + Gα16, > 3160 µM. Also, the values for the EC50 at MC4R (setting [7]) and at MC4R + GPR139 were > 3160 µM and 93.3 µM, respectively. Moreover, on MC5R + GPR139, the “Agonist potency (pEC50), MC5R + GPR139, No antagonist” value worked out at 4.02 ± 0.07. Further, the “Stimulation of [35S]-GTPγS incorporation” value at GPR139 [2] is listed as “did not stimulate”. In addition, the “Effect of YM-254890 on agonist” value on GPR139 [2] is “had no effect”. Moreover, the “Agonist potency (pEC50), MC4R + GPR139, No antagonist” value at MC4R + GPR139 is recorded as 4.03 ± 0.05. For the same compound, the “Response in a cAMP assay” value on GPR139 [3] was “unable to detect a response”.

`COc1cc(OC)cc(C(=O)NNC(=O)Nc2cccc3ccccc23)c1` [TC-O9311]: the EC50 was > 10 µM on MC3R + Gα16; 0.0372 µM on MC5R + GPR139; 0.178 µM on GPR139 [2]; > 10 µM on MC3R; 0.0501 µM at GPR139 + MC3R; > 10 µM on MC5R + Gα16. For the same compound, the EC50 is > 10 µM on MC4R and 0.0661 µM at MC4R + GPR139. Besides, the “Agonist potency (pEC50), MC5R + GPR139, No antagonist” value at MC5R + GPR139 is 7.43 ± 0.06. Also, on GPR139 [1], the cAMP response result is reported as “unable to induce or inhibit a cAMP response”. In addition, on GPR139 [2], the “Stimulation of [35S]-GTPγS incorporation” value is recorded as “did not stimulate”. The “Effect of YM-254890 on agonist” value on GPR139 [2] is recorded as “had no effect”. For the same compound, the “Agonist potency (pEC50), MC4R + GPR139, No antagonist” value on MC4R + GPR139 is 7.18 ± 0.08. For the same compound, the “Response in a cAMP assay” value at GPR139 [3] is “unable to detect a response”.

The values are drawn from paper PMC5863515, “Re-evaluation of Adrenocorticotropic Hormone and Melanocyte Stimulating Hormone Activation of GPR139 in Vitro” (Frontiers in Pharmacology, 2018).
